Results: PMC6588243, “Fate of ptaquiloside—A bracken fern toxin—In cattle” (PLoS ONE, 2019)
“Also recorded” adds a separate entry of the source. Like-named read-outs stand apart in the source and are kept apart here.

What was measured:
Assay type in all cases: in vivo, Jersey heifers
[1] = Toxicokinetics in plasma after oral administration of bracken extract or dried bracken fern; conditions: bracken extract or dried bracken fern, Experiments 2, 3 and 5
Method: (§1) Two heifers (no’s 4848 and 4849) were used in a series of five experiments (Table 1) in a cross-over design including intravenous administration of pure PTA, oral administration of bracken extract and oral administration of dried bracken fern. At least 2 weeks elapsed between each experiment.
Oral exposure, bracken extract. Bracken extract was administered orally by gavage in Experiment 2 (170 and 172 mL) and Experiment 5 (820 and 850 mL), to obtain PTA doses of 0.41 and 2 mg kg^-1 b.w (1.025 and 5.000 μmoles kg^-1), respectively. Blood and urine samples were collected up to 48 hours after gavage and samples were processed and stored as described previously.
Oral exposure, dried bracken fern. In Experiment 3, dried bracken fern was milled to a fine powder. Immediately before administration, the powder was mixed with water to produce a slurry (15 g of bracken per 100 mL of water). The slurry was administered orally by gavage (400 mL and 380 mL) corresponding to a PTA dose of 1.6 mg kg^-1 b.w (4 μmoles kg^-1). Blood and urine samples were collected up to 72 hours after gavage and the samples were processed and stored as described above.
(§2) Concentrations of PTA in plasma of individual animals were evaluated by non-compartmental analysis. Toxicokinetic variables were calculated using standard kinetic equations. The area under the curve (AUC) and the area under the first moment curve (AUMC) were determined using combined linear and natural logarithm trapezoidal rules. The terminal elimination rate was determined using the last three data points of the curve.
(§3) PTA and PTB were analysed by LC-MS after purification using solid phase extraction (SPE) columns as reported in Aranha et al.. The limit of quantification of PTA and PTB in plasma was 3.0 x 10^−3 μM and 9.30 x 10^−3 μM, respectively. Limit of quantifications in diluted urine was 13 x 10^−3 μM for PTA and 8.28 x 10^−3μM for PTB.

[2] = Toxicokinetics of PTA and PTB in plasma after intravenous administration of PTA; conditions: for AUC0-∞: PTA in plasma; for k el / clearance / MRT / Vd: iv; for k el: read-out: λz terminal slope (converted)
Method: as §1
Intravenous administration of PTA. In Experiment 1 the dose of purified PTA (0.21 mg kg^-1 body weight (b.w.) / 0.527 μmoles kg^-1) was dissolved in 10 mL of sterile water in a brown glass vial 1 hour before administration and protected from light. The solution was injected through a catheter (Cavafix Certo: 45 cm, 16 G; B. Braun Melsungen AG, Melsungen, Germany) placed in the right jugular vein. Blood samples were collected through another catheter placed in the left jugular vein. Blood samples were collected in heparinized glass tubes before and at predetermined times (10, 20, 30, 45 min and 1, 2, 4, 6, 8, 12, 21 and 24 hours) after PTA administration. The blood was centrifuged for 15 min at 3000 g to separate plasma which then was stored immediately at -18°C until assayed within a week following the method of Aranha et al.. Urine was collected quantitatively in urinary bags (Ratiomed GmBH, München, Germany) through a Foley catheter (Rusch Silasil no 16; Teleflex, Milan, Italy) inserted into the bladder. Samples were collected before and at predetermined times (1, 2, 4, 6, 8, 12, 20 and 24 hours) after PTA administration. Two replicates from each sample were diluted 10 times (0.5 mL: 4.5 mL) with 0.1 M acetic acid, buffered to pH 5 with ammonium acetate and frozen immediately at -18°C until assayed within a week following the method of Aranha et al.. […] In this experiment, PTA was dissolved in sterile water immediately before injection.
as §2, §3

[3] = One-week repeated dose trial with dried bracken, plasma toxicokinetics; conditions: dried bracken, 7 days
Text: The two heifers used for the single dose trials were also used for the one week repeated dose study together with an additional two Jersey heifers (no’s 1550 and 1567; Harald Hansen Eftf. I/S, Slangerup, Denmark) weighing 163 to 237 kg. The additional two heifers had never been exposed to PTA or to bracken fern. A wash-out period of 20 days between the last single-dose experiment and the one week repeated dose trial was established for heifers no’s 4848 and 4849.
All four heifers were fed dried bracken powder (top-dressed and molasses added). twice a day during a period of 7 days providing a daily PTA dose of 2 mg kg^-1 (5 μmoles kg^-1). On Day 8, the heifers no 4848 and no 1567 were additionally fed in the morning and euthanized 1 hour after using a captive bolt pistol and exsanguination. The two other heifers (no 4849 and no 1550) were euthanized 15 h after the last dose on Day 7 (Fig 2).
Blank blood samples were collected before the first dose was given. On Day 1 and Day 7 blood samples were collected after the morning dose at predetermined time points between 1 and 6 h after dosing (1, 2, 3, 5 and 6 hours). On Day 2 to Day 6 blood samples were collected daily 1 hour after 50% or more of the morning feed had been ingested, since the bracken fern was not eaten instantly. On Day 8 blood samples were collected just before euthanasia. Blood samples were processed and stored as described above.
as §2

[4] = Presence of glucuronides and sulphates in urine (B-glucuronidase/arylsulfatase incubation); conditions: urine after iv PTA
Method: The presence of glucuronides and sulphates was assessed by incubating 1 ml of buffered urine samples in 0.1 M acetic acid buffer (pH 5) with or without addition of 100 μl of B-glucuronidase/arylsulfatase at 37°C for 3 hours on a shaking water bath. Afterwards, an aliquot of 950 μl of each samples were cleaned on the Oasis HLB cartridges and analysed as described for urine samples [22].

For CC1=C[C@]2(O[C@@H]3O[C@H](CO)[C@@H](O)[C@H](O)[C@H]3O)C[C@@H](C)C(=O)[C@@H]2[C@](C)(O)C12CC2 [PTA, (2'R,3a'R,4'S,7a'R)-4'-Hydroxy-2',4',6'-trimethyl-3'-oxo-2',3',3a',4'-tetrahydrospiro[cyclopropane-1,5'-inden]-7a'(1'H)-yl β-D-glucopyranoside], the “PTA in plasma after oral administration” value [1] was “not detected; also recorded: neither detected”, the “PTA in plasma after oral administration” value ([1]; listed as ptaquiloside) was “did not result in observations of ptaquiloside in body fluids” and the “AUC0-∞” value ([2]; iv PTA 0.141 μmoles kg^-1, heifer no 4849, head prints Experiment 2) was 0.42 µM·h. For the same molecule, the “AUC0-∞” value ([2]; iv PTA 0.231 μmoles kg^-1, heifer no 4848, head prints Experiment 2) was 0.829 µM·h, the “AUC0-∞” value ([2]; iv PTA 0.527 μmoles kg^-1, heifer no 4848, Experiment 1) was 1.39 µM·h and the “AUC0-∞” value ([2]; iv PTA 0.527 μmoles kg^-1, heifer no 4849, Experiment 1) was 1.35 µM·h. For the same molecule, the k el ([2]; female, Jersey, bovine, plasma, 0.141 μmoles kg^-1, iv PTA 0.141 μmoles kg^-1, heifer no 4849, head prints Experiment 2, plasma) was 6.72e-05 s⁻¹, the clearance ([2]; female, Jersey, bovine, plasma, 0.141 μmoles kg^-1, iv PTA 0.141 μmoles kg^-1, heifer no 4849, head prints Experiment 2, read-out: Cl (body) body clearance (converted)) was 5.57 mL/min/kg and the MRT ([2]; female, Jersey, bovine, plasma, 0.141 μmoles kg^-1, iv PTA 0.141 μmoles kg^-1, heifer no 4849, head prints Experiment 2, read-out: MRT mean residence time) was 2.48 h. The Vd ([2]; female, Jersey, bovine, plasma, 0.141 μmoles kg^-1, iv PTA 0.141 μmoles kg^-1, heifer no 4849, head prints Experiment 2, read-out: Vss apparent volume of distribution at steady-state) was 0.83 L/kg, the k el ([2]; female, Jersey, bovine, plasma, 0.231 μmoles kg^-1, iv PTA 0.231 μmoles kg^-1, heifer no 4848, head prints Experiment 2, plasma) was 0.000105 s⁻¹ and the clearance ([2]; female, Jersey, bovine, plasma, 0.231 μmoles kg^-1, iv PTA 0.231 μmoles kg^-1, heifer no 4848, head prints Experiment 2, read-out: Cl (body) body clearance (converted)) was 4.72 mL/min/kg. It also gave an MRT ([2]; female, Jersey, bovine, plasma, 0.231 μmoles kg^-1, iv PTA 0.231 μmoles kg^-1, heifer no 4848, head prints Experiment 2, read-out: MRT mean residence time) of 2.04 h, a Vd ([2]; female, Jersey, bovine, plasma, 0.231 μmoles kg^-1, iv PTA 0.231 μmoles kg^-1, heifer no 4848, head prints Experiment 2, read-out: Vss apparent volume of distribution at steady-state) of 0.567 L/kg and a k el ([2]; female, Jersey, bovine, plasma, 0.527 μmoles kg^-1, iv PTA 0.527 μmoles kg^-1, heifer no 4848, Experiment 1, plasma) of 4.25e-05 s⁻¹. The clearance ([2]; female, Jersey, bovine, plasma, 0.527 μmoles kg^-1, iv PTA 0.527 μmoles kg^-1, heifer no 4848, Experiment 1, read-out: Cl (body) body clearance (converted)) was 6.33 mL/min/kg, the MRT ([2]; female, Jersey, bovine, plasma, 0.527 μmoles kg^-1, iv PTA 0.527 μmoles kg^-1, heifer no 4848, Experiment 1, read-out: MRT mean residence time) was 2.99 h and the Vd ([2]; female, Jersey, bovine, plasma, 0.527 μmoles kg^-1, iv PTA 0.527 μmoles kg^-1, heifer no 4848, Experiment 1, read-out: Vss apparent volume of distribution at steady-state) was 1.14 L/kg. For the same molecule, the k el ([2]; female, Jersey, bovine, plasma, 0.527 μmoles kg^-1, iv PTA 0.527 μmoles kg^-1, heifer no 4849, Experiment 1, plasma) was 3.19e-05 s⁻¹, the clearance ([2]; female, Jersey, bovine, plasma, 0.527 μmoles kg^-1, iv PTA 0.527 μmoles kg^-1, heifer no 4849, Experiment 1, read-out: Cl (body) body clearance (converted)) was 6.48 mL/min/kg and the MRT ([2]; female, Jersey, bovine, plasma, 0.527 μmoles kg^-1, iv PTA 0.527 μmoles kg^-1, heifer no 4849, Experiment 1, read-out: MRT mean residence time) was 3.84 h. It also gave a Vd ([2]; female, Jersey, bovine, plasma, 0.527 μmoles kg^-1, iv PTA 0.527 μmoles kg^-1, heifer no 4849, Experiment 1, read-out: Vss apparent volume of distribution at steady-state) of 1.49 L/kg, a Vd ([2]; female, Jersey, bovine, plasma, 0.21 mg/kg, iv PTA 0.21 mg kg^-1 b.w., average of two heifers, read-out: apparent volume of distribution at steady state (Vss)) of about 1.3 L/kg and an MRT ([2]; female, Jersey, bovine, plasma, iv PTA, abstract and discussion, read-out: mean residence time (MRT), as summarised) of at most 4 h. For the same molecule, the half-life ([2]; female, Jersey, bovine, plasma, iv purified PTA, read-out: terminal half-life) was at most 6 h, the Vd ([2]; female, Jersey, cattle, plasma, 0.21 mg/kg, iv PTA 0.21 mg kg^-1 b.w., average of two heifers, read-out: apparent volume of distribution at steady state (Vss)) was 1.3 L/kg and the clearance ([2]; female, Jersey, cattle, plasma, 0.21 mg/kg, iv PTA 0.21 mg kg^-1 b.w., average of two heifers, read-out: average clearance (converted)) was 6.5 mL/min/kg. For the same molecule, the MRT ([2]; female, Jersey, cattle, plasma, 0.21 mg/kg, iv PTA 0.21 mg kg^-1 b.w., average of two heifers, read-out: average of the mean residence time (MRT)) was 3.4 h, the MRT ([2]; female, Jersey, cattle, plasma, iv PTA, abstract and discussion, read-out: mean residence time (MRT), as summarised) was 4 h and the “time after which the plasma concentration was below the limit of quantification” value ([2]; iv PTA 0.21 mg kg^-1 b.w.) was 12 h. The “PTA in plasma after repeated oral administration” value [3] was “not detected” and the “conjugation with glucuronic acid or sulphate in urine” value [4] was “not conjugated with either glucuronic acid or sulphate”.
